Results as given in ChEMBL document CHEMBL4673260, “Pyridine alkaloids with activity in the central nervous system” (Bioorg Med Chem, 2020).

Experiments:
[1] = target: T1, Acetylcholinesterase (Homo sapiens, UniProt P22303); experiment: Inhibition of acetylcholinesterase (unknown origin) using acetylthiocholine iodide as substrate incubated for 30 mins by Ellman's coupled enzyme assay
[2] = target: Acetylcholinesterase (Electrophorus electricus) (UniProt O42275); experiment: Inhibition of electric eel acetylcholinesterase using acetylthiocholine iodide as substrate by Ellman's method relative to control; conditions: concentration not given here
Acetylcholinesterase (Electrophorus electricus), sequence (O42275 24-633 limits assumed): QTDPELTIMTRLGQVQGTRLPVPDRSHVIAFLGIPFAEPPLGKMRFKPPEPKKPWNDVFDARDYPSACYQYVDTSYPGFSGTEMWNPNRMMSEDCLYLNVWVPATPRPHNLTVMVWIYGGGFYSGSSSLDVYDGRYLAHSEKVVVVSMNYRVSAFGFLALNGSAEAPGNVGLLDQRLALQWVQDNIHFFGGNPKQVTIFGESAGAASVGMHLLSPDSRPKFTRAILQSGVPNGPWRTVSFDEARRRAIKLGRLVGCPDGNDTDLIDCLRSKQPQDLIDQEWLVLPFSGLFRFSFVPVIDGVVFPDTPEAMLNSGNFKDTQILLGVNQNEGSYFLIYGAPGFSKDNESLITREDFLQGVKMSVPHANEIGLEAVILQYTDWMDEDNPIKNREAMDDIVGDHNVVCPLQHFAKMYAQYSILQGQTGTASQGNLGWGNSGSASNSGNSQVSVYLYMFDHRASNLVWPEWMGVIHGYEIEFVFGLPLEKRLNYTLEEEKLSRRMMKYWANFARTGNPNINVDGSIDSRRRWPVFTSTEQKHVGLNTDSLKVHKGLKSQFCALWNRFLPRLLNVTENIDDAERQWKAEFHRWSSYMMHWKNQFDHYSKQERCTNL

[3] = target: T1, Acetylcholinesterase
[4] = target: T2, Neuronal acetylcholine receptor; alpha4/beta2 (Rattus norvegicus) (UniProt P09483+P12390); experiment: Agonist activity at rat alpha4beta2 expressed in Xenopus oocytes assessed as peak activation at 100 uM relative to control; type: cell-based; conditions: Oocyte, filed as agonist
[5] = Neurotoxicity in ip dosed mouse assessed as induction of epileptic convulsion; type: toxicity, organism-based; conditions: in vivo
[6] = Neurotoxicity in ip dosed mouse assessed as mouse death; type: toxicity, organism-based; conditions: in vivo
[7] = Neurotoxicity in ip dosed mouse assessed as induction of hindlimb tonic extension; type: toxicity, organism-based; conditions: in vivo
[8] = target: Muscarinic acetylcholine receptor M3 (Rattus norvegicus, UniProt P08483); experiment: Inhibition of [3H]-methyl-quinuclidinyl benzilate binding to rat salivary gland muscarinic M3 receptor by radioligand binding assay
Muscarinic acetylcholine receptor M3, sequence (P08483 whole entry): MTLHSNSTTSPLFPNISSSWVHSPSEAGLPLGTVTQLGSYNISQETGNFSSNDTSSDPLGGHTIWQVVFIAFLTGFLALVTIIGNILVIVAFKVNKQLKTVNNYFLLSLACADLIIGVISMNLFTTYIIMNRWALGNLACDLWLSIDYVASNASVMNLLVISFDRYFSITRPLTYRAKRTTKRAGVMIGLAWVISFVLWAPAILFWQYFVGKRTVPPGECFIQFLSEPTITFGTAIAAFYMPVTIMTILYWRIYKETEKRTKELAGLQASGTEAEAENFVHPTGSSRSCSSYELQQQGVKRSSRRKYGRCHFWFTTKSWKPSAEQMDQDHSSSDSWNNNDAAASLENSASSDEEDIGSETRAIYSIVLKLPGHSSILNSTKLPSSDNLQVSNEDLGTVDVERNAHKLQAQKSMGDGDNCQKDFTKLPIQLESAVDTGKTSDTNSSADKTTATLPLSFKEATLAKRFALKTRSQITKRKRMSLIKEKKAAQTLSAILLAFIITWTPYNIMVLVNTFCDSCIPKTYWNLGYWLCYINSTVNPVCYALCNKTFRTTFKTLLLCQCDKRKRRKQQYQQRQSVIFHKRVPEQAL

[9] = target: T3, Muscarinic acetylcholine receptor M1 (Rattus norvegicus, UniProt P08482); experiment: Inhibition of [3H]-methyl-quinuclidinyl benzilate binding to rat brain muscarinic M1 receptor by radioligand binding assay
T3 sequence (P08482 whole entry): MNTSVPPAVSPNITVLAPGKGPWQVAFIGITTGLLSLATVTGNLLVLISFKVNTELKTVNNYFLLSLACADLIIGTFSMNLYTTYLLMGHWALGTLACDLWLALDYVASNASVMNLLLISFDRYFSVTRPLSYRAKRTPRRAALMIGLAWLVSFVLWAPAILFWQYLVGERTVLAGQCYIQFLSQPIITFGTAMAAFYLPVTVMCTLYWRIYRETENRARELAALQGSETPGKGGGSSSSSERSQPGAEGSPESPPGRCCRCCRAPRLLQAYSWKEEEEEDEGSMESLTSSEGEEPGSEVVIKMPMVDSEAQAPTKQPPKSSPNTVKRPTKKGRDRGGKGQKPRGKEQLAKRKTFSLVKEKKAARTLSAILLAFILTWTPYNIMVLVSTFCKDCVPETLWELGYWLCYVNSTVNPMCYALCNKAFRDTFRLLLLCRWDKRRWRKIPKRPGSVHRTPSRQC

[10] = target: T4, Muscarinic acetylcholine receptor M2 (Rattus norvegicus, UniProt P10980); experiment: Inhibition of [3H]-methyl-quinuclidinyl benzilate binding to rat heart muscarinic M2 receptor by radioligand binding assay
T4 sequence (P10980 whole entry): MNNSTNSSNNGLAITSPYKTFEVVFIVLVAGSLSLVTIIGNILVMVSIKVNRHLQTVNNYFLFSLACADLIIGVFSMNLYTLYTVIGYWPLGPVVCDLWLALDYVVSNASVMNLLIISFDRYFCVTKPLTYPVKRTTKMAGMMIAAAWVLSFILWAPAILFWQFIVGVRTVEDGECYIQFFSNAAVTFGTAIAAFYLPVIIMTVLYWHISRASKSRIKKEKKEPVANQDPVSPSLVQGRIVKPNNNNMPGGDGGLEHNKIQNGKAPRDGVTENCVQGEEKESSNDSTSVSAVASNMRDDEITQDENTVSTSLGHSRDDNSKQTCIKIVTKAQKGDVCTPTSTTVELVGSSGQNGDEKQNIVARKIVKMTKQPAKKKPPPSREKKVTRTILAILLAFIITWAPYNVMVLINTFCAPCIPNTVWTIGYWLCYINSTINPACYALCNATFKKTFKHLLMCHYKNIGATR

[11] = Toxicity in iv dosed Swiss-Webster mouse by up-and-down method; type: organism-based; conditions: in vivo
[12] = target: Neuronal acetylcholine receptor subunit alpha-7 (Rattus norvegicus, UniProt Q05941); experiment: Displacement of 125I-alpha-bungarotoxin from rat brain alpha7 nAChR by radioligand binding assay
Neuronal acetylcholine receptor subunit alpha-7 (Rattus norvegicus, UniProt Q05941), sequence (Q05941 whole entry): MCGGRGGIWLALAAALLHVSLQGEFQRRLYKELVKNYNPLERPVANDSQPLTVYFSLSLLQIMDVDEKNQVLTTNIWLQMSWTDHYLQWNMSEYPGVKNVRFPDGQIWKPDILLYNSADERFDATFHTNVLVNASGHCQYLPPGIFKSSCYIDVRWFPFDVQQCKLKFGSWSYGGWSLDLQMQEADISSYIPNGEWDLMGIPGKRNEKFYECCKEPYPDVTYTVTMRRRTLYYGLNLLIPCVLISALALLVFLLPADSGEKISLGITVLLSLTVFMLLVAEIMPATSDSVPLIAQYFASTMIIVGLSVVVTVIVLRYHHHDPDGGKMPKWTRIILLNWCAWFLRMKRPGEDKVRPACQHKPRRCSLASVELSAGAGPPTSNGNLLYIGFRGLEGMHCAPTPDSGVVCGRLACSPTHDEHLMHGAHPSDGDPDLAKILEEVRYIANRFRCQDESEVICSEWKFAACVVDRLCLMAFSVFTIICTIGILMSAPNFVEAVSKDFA

[13] = target: T5, Muscarinic acetylcholine receptor M1 (Rattus norvegicus) (UniProt P08482); conditions: filed as antagonist, time 40.0 min
T5 sequence (whole entry): T3 sequence (P08482 whole entry)

[14] = target: T5, Muscarinic acetylcholine receptor M1 (Rattus norvegicus); conditions: filed as antagonist, time 60.0 min
[15] = target: T6, Neuronal acetylcholine receptor; alpha4/beta2 (Homo sapiens, UniProt P17787+P43681)
T6 sequence (P17787 whole entry): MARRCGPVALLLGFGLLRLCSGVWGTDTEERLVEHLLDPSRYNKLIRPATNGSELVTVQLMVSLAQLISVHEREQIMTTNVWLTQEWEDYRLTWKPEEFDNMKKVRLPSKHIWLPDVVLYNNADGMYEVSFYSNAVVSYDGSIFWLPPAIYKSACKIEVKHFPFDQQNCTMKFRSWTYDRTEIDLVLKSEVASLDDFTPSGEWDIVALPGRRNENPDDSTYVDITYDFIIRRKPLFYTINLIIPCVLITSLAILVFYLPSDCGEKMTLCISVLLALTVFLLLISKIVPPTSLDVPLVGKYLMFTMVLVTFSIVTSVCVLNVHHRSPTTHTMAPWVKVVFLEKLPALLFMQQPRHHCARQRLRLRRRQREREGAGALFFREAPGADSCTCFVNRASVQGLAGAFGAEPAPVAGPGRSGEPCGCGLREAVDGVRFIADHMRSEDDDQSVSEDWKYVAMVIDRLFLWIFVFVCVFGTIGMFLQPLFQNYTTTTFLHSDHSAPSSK
T6 sequence (P43681 whole entry): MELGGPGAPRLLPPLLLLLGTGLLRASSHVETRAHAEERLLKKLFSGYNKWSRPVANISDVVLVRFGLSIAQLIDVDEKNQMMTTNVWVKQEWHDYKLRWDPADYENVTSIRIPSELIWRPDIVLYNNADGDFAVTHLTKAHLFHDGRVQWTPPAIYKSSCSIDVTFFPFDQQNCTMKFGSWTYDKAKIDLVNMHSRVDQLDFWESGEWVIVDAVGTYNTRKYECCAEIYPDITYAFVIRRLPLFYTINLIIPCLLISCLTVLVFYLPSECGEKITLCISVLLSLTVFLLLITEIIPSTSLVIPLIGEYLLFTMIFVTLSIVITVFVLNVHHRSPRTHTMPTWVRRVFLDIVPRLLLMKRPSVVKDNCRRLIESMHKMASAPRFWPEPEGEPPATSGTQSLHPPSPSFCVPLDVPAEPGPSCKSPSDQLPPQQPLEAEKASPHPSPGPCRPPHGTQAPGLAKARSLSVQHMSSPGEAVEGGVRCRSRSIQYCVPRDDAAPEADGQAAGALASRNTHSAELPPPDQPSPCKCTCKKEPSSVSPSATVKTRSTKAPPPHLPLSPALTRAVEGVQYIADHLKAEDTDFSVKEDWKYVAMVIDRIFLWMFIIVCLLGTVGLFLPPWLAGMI
Description: Displacement of [3H]cytisine from human alpha4beta2 nAChR by radioligand competition analysis

[16] = target: T6, Neuronal acetylcholine receptor; alpha4/beta2; remark: listed apart in the source
Description: Displacement of [3H]cytisine from human alpha4beta2 nAChR by Cheng-Prusoff equation analysis

[17] = target: T7, Dopamine beta-hydroxylase (Bos taurus) (UniProt P15101); experiment: Inhibition of bovine adrenal medulla DBH at 5 uM relative to control
T7 sequence (whole entry): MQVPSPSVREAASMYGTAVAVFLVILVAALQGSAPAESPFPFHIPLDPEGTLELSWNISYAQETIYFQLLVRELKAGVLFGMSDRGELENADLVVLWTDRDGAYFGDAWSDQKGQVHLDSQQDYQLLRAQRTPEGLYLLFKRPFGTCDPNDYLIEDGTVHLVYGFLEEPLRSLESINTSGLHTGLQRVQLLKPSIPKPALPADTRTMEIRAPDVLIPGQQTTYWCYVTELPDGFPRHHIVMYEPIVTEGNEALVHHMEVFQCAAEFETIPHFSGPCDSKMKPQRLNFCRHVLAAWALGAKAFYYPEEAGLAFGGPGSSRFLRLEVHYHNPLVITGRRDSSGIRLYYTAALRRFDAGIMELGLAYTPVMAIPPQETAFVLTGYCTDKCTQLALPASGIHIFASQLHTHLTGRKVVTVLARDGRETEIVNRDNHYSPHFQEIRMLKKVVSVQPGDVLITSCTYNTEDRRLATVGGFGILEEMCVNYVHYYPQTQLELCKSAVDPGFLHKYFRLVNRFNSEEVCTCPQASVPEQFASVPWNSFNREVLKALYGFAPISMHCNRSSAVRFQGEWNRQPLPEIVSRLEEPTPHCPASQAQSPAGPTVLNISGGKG

[18] = target: T7, Dopamine beta-hydroxylase (Bos taurus); experiment: Inhibition of bovine adrenal medulla DBH at 0.5 uM relative to control
[19] = target: Neuronal acetylcholine receptor subunit alpha-7 (Homo sapiens, UniProt P36544); conditions: filed as agonist
Neuronal acetylcholine receptor subunit alpha-7 (Homo sapiens, UniProt P36544), sequence (P36544 whole entry): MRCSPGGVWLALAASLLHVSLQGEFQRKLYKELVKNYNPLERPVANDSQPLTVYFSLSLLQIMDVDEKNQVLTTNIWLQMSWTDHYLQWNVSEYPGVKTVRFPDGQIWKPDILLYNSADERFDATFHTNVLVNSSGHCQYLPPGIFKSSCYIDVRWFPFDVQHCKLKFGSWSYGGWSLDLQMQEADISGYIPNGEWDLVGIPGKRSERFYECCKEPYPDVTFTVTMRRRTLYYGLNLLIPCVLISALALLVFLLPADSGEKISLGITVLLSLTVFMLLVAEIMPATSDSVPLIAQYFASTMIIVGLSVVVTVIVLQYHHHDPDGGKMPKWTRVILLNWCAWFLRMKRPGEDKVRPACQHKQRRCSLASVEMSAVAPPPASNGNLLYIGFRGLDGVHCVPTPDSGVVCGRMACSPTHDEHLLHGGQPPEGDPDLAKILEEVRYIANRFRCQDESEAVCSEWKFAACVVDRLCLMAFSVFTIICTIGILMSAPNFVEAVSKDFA
Description: Agonist activity at human alpha7 nAChR (unknown origin)

[20] = target: T6, Neuronal acetylcholine receptor; alpha4/beta2; experiment: Agonist activity at human brain alpha4beta2 nAChR expressed in CHO cells assessed as maximal receptor response by patch clamp electrophysiological assay relative to control; type: cell-based; conditions: filed as agonist
[21] = target: T2, Neuronal acetylcholine receptor; alpha4/beta2 (Rattus norvegicus); experiment: Agonist activity at alpha4beta2 nAChR in rat thalamic synaptosomes assessed as 86Rb efflux relative to tetramethylammonium; type: subcellular; conditions: Thalamus, filed as agonist
[22] = species: Rattus norvegicus; experiment: Agonist activity at nAChR in rat striatal synaptosomes assessed as [3H]dopamine release relative to tetramethylammonium; type: subcellular; conditions: Striatum, filed as agonist
[23] = target: Neuronal acetylcholine receptor; alpha3/beta4 (Homo sapiens) (UniProt P30926+P32297); experiment: Agonist activity at human alpha3beta4 nAChR expressed in mouse/rat hybrid F11 cells assessed as increase in rubidium-86 efflux; type: cell-based; conditions: filed as agonist
[24] = test system: Torpedo; experiment: Agonist activity at Torpedo alpha1beta1deltagamma nACHR; conditions: filed as agonist
[25] = Displacement of [3H]-(-)-nicotine from rat cerebral cortex nAChR incubated for 60 mins by liquid scintillation spectrometry
[26] = Induction of neurotoxicity in cray fish measured after 24 hrs; conditions: procambarus clarkii

T1 sequence (P22303 whole entry): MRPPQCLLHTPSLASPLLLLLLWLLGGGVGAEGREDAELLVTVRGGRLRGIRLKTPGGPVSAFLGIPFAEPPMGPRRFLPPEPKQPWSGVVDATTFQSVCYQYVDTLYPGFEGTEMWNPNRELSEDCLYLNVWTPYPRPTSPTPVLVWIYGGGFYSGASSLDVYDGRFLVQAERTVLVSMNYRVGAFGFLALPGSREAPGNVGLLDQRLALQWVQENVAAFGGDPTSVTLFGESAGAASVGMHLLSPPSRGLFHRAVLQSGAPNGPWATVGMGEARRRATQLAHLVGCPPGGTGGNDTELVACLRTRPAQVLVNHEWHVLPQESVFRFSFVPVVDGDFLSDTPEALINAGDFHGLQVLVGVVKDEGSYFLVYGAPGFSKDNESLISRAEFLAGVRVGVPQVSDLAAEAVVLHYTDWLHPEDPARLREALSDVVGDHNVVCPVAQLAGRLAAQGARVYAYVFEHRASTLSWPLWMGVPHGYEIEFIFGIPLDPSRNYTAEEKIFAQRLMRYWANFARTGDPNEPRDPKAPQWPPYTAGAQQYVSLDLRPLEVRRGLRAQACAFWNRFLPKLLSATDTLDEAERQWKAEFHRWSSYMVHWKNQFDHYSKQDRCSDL

**Q.** For `CO[C@]1(c2cn(O)c(=O)c(C(=O)[C@H]3[C@@H]4CC[C@@H](C)C[C@H]4C=C[C@H]3C)c2O)CC[C@@H](O)[C@H]2O[C@H]21`, which IC50 [1] is on record?
**A.** The IC50 was 0.81 µM.

**Q.** Which inhibition [2] does the source give for `O=C(O)[C@H]1CCCC[C@@H]1c1c[nH]c(=O)cc1O` here?
**A.** The inhibition was 57.5%.

**Q.** Which IC50 [3] does the source give for `CCCCCCCCCCCCCCCCc1cc[n+](C)cc1C(=O)[O-]` here?
**A.** The IC50 was 2600 µM.

**Q.** With `CC(=O)OCC[N+](C)(C)C` as the molecule, how does the Activity [4] read?
**A.** Its Activity is 242%.

**Q.** Which LD [5] does the source give for `O=C(O)C[C@@H]1[C@@H](C(=O)O)NC[C@@H]1c1ccc(=O)[nH]c1C(=O)O` here?
**A.** Its LD is 8 mg/kg.

**Q.** And the LD [6]?
**A.** Its LD is 8 mg/kg.

**Q.** What about the LD [7] of the same molecule?
**A.** The LD was 8 mg/kg.

**Q.** Which IC50 [3] does the source give for `CCCCCCCCCCCCCCCCc1c(C(=O)[O-])ccc[n+]1C` here?
**A.** Its IC50 is 2100 µM.

**Q.** With `c1cc2c[n+](c1)CCCCCCCCCCCCCCc1ccc[n+](c1)CCCCCCCCCCCCCC2` as the molecule, how does the IC50 [8] read?
**A.** The IC50 was 612 µM.

**Q.** And the IC50 [9]?
**A.** The IC50 was 470 µM.

**Q.** And the IC50 [10]?
**A.** The IC50 was 194 µM.

**Q.** Which LD50 [11] does the source give for `c1cncc([C@H]2CCCCN2)c1` here?
**A.** Its LD50 is 11 mg/kg.

**Q.** What about the Ki [12] of the same molecule?
**A.** Its Ki is 3.7 µM.

**Q.** Which results are given for `c1cc2c[n+](c1)CCCCCCCCCCCCCc1ccc[n+](c1)CCCCCCCCCCCCC2`?
**A.** IC50 [8]: 193 µM; IC50 [9]: 162 µM; IC50 [10]: 72.3 µM

**Q.** Which Kapp [13] does the source give for `C[N+](C)(C)CCOC(N)=O` here?
**A.** The Kapp was 0.0049 µM.

**Q.** What about the Kapp [14] of the same molecule?
**A.** The Kapp was 22 µM.

**Q.** Which IC50 [8] does the source give for `c1cc2c[n+](c1)CCCCCCCCCCCCCCc1ccc[n+](c1)CCCCCCCCCCCC2` here?
**A.** Its IC50 is 282 µM.

**Q.** And the IC50 [9]?
**A.** Its IC50 is 233 µM.

**Q.** What about the IC50 [10] of the same molecule?
**A.** Its IC50 is 79 µM.

**Q.** Which IC50 [1] does the source give for `C[C@@H]1CC[C@H]2[C@H](C(=O)c3c(O)c([C@@]4(O)CC[C@@H](O)[C@H]5O[C@H]54)cn(O)c3=O)[C@H](C)C=C[C@@H]2C1` here?
**A.** Its IC50 is 39 µM.

**Q.** What does the source list for `CN1CC2c3cccc(=O)n3CC3C2[C@H](CO)CC31` (some centres not stated)?
**A.** IC50 [15]: 0.0039 µM; Ki [16]: 0.0013 µM

**Q.** Which results are given for `O=C(O)c1ccccn1`?
**A.** inhibition [17]: 83%; inhibition [18]: 55%

**Q.** Which results are given for `CN1CCC[C@H]1c1cccnc1`?
**A.** ED50 [19]: 40 µM; Imax [20]: 159%; Emax [21]: 87%; Emax [22]: 113%; Activity [4]: 333%; ED50 [23]: 14 µM; ED50 [24]: 250 µM

**Q.** Which IC50 [25] does the source give for `Clc1ccc(C2CC3CCC2N3)cn1` (stereo in doubt; (-)) [EPIBATIDINE] here?
**A.** The IC50 was 0.00024 µM.

**Q.** With `Clc1ccc(C2CC3CCC2N3)cn1` (stereo in doubt; (-)) as the molecule, how does the Kapp [13] read?
**A.** The Kapp was 1.4 µM.

**Q.** And the Kapp [14]?
**A.** The Kapp was 16 µM.

**Q.** Which LD50 [26] does the source give for `c1ccc(-c2cccnc2)nc1` [[2,3'']Bipyridinyl] here?
**A.** Its LD50 is 94 µg.
